Test results: patent US20240277682A1, “PHARMACEUTICAL HYDRONIDONE FORMULATIONS FOR DISEASES” (Gyre Therapeutics, Inc., priority 2021, published 2024)
Where two headings read alike, the source gives them in different places.

Legend:
human CYP 2 D6 = human CYP 2 D6 (Homo sapiens, UniProt P10635); assay: CYP450 inhibition, fluorescence of metabolic substrates
Procedure: (§1) In vitro study investigated whether Hydronidone is inhibitor for human cytochrome P450 (CYP450). The effects of different Hydronidone concentrations were determined by the fluorescence intensity of metabolic substrates of CYP1A2, 2C9, 2C19, 2 D6 and 3A4, produced under the effect of the relevant enzyme. The respective IC50 value were calculated in the event of observed inhibition with hydronidone.

human CYP 2C9 = human CYP 2C9 (Homo sapiens, UniProt P11712); assay: as above
Procedure: as §1

human CYP 3A4 = human CYP 3A4 (Homo sapiens, UniProt P08684); assay: as above
Procedure: as §1

human CYP 2C19 = human CYP 2C19 (Homo sapiens, UniProt P33261); assay: as above
Procedure: as §1

[1] = In vitro Phase 2 metabolism in human liver microsomes; format: in vitro ADME; details: 30 minutes incubation
[2] = system: liver fibrosis due to chronic Hepatitis B; assay: Phase II study in subjects with liver fibrosis due to chronic Hepatitis B, 52 weeks, Entecavir basic treatment (Examples 11-21); format: in vivo, human
Procedure: This is a Phase II, randomized, double-blind, placebo-controlled, Entecavir-Basic Treatment, multi-center, dose-ranging study on the efficacy and safety of Hydronidone when administered to Chinese subjects with liver fibrosis due to chronic Hepatitis B for 52 consecutive weeks.
Approximately 240 eligible subjects, approximately 60 subjects per dose cohort, are planned to be enrolled in the study and treated daily with Hydronidone oral doses of 30 mg, 60 mg. or 120 mg TID (total daily doses of […], […], and 360 mg, respectively) for 52 consecutive weeks or placebo, concomitantly with basic anti-viral treatment with Entecavir at a daily dose of 0.5 mg. In parallel, a group of 12 subjects will be evaluated for PK.

[3] = PK study of single ascending oral doses in healthy volunteers (Example 7); format: in vivo, human; details: for CL renal / AUC / AUC(0-t) / Cmax / Tmax: male, human; for CL renal: plasma and urine; for CL renal / AUC / AUC(0-t) / Cmax / Tmax / Cl_F_pred / HL_Lambda_z / Lambda_z / Vz_F_pred: fasted; for CL renal / AUC / AUC(0-t) / Cmax / Cl_F_pred / HL_Lambda_z / Lambda_z / Vz_F_pred / Amount_Recovered / Percent_Recovered (urinary percentage of Hydronidone): n = 12, Mean(SD); for AUC / AUC(0-t) / Cmax / Tmax: plasma; for AUC: healthy Chinese subjects, read-out: AUCINE_pred; for Tmax: n = 12, Median (Min-Max); for Amount_Recovered / Percent_Recovered (urinary percentage of Hydronidone): urine
Procedure: This was randomized, open-label, 4-period, crossover PK study of single ascending oral doses of Hydronidone in healthy volunteers.
Ascending single oral doses of 200 mg, 400 mg, 600 mg and 800 mg of Hydronidone were given to 12 eligible, healthy male Chinese subjects, 26-38 years of age, satisfying all inclusion and exclusion criteria, and randomly divided into four dose groups, 3 subjects per group, under fasted conditions. According to the Williams Design, the subjects in each group were treated with Hydronidone at four different doses in four periods. The PK blood samples were collected at: 0 (pre-dose), 10 min, 20 min, 30 min, 40 min, 1 hr, 1.5 hr, 2 hr, 3 hr, 4 hr, 5 hr, 6 hr, 8 hr, 10 hr, 12 hr, 16 hr, and 24 hr, and 48 hr post-dose. The subjects also provided PK urine samples at 0 (pre-dose), 5 hr, 12 hr, and 24 hr post-dose. There was additional 24 hr washout period after the end of collection of PK samples, a total of 48 hrs between the first and the next dose level administration. Blood and urine samples were analysed for determination of plasma and urine concentrations of Hydronidone and its metabolites (M3).

For Cc1ccc(=O)n(-c2ccc(O)cc2)c1 [Hydronidone, N-(4-hydroxyphenyl)-5-Methyl-2-pyridone], the IC50 (human CYP 2 D6) was over 100 µM, the IC50 (human CYP 2C9) was over 100 µM and the IC50 (human CYP 3A4) was over 100 µM. For the same molecule, the IC50 (human CYP 2C19) was over 100 µM, the “generation of the M4 metabolite” value [1] was “detected” and the “Ishak score improvement in patients of significant fibrosis” value ([2]; 52 weeks) was “consistent with the results of primary endpoint analysis”. The “improvement in HBeAg(−) vs HBeAg(+) patients” value ([2]; 52 weeks) was “better than in HbeAg(+) patients”, the “response in HBV DNA+ patients” value ([2]; HBV DNA+ after 52 weeks Entecavir therapy, Ishak>3) was “all patients (Ishak>3) responded” and the “Ishak score ≥1 (primary endpoint)” value ([2]; after 52 weeks of therapy, with Entecavir) was “significantly lower the Ishak score”. The “intra group Ishak score change” value ([2]; after 52 weeks, all drug groups) was “statistically significant decline of Ishak score≥1”, the “change of liver stiffness measurement LSM” value ([2]; after 52 weeks, all drug groups, intra group P<0.01) was “decline of LSM(kPa)” and the Ishak score changes ([2]; baseline HBeAg (+) patients after 52 weeks) was “statistical significant changes when dose groups are combined”. For the same molecule, the Ishak score changes ([2]; baseline HBeAg (−) patients after 52 weeks) was “statistical significant changes when dose groups are combined”, the “fibrosis in patients of significant fibrosis and cirrhosis” value ([2]; combination of 270 mg and 360 mg groups) was “can improve fibrosis” and the “fibrosis in patients of significant fibrosis and cirrhosis” value ([2]; combination of all drug groups) was “can improve fibrosis”. The LSM scores ([2]; combination of drug groups, Advanced Fibrosis (Ishak≥4)) was “showed statistical significance”, the “best dose group (patients of significant fibrosis)” value ([2]; total daily dose, 52 weeks) was 270 mg and the “amount of intact drug excreted via urine during 48 h” value ([3]; first of four values (doses 200, 400, 600, 800 mg): 200 mg) was 82.25 ± 40.95 mg. For the same molecule, the “amount of intact drug excreted via urine during 48 h” value ([3]; fourth of four values: 800 mg) was 234.72 ± 210.50 mg, the CL renal ([3]; single oral dose 200 mg) was 14.7 mL/min and the CL renal ([3]; single oral dose 400 mg) was 11.1 mL/min. For the same molecule, the CL renal ([3]; single oral dose 600 mg) was 9.83 mL/min, the CL renal ([3]; single oral dose 800 mg) was 8.7 mL/min and the AUC ([3]; single oral dose 200 mg) was 1380 ng·h/mL. The AUC(0-t) ([3]; single oral dose 200 mg) was 1360 ng·h/mL, the Cmax ([3]; single oral dose 200 mg) was 715 ng/mL and the Tmax ([3]; single oral dose 200 mg) was 19.8 min. The AUC ([3]; single oral dose 400 mg) was 2800 ng·h/mL, the AUC(0-t) ([3]; single oral dose 400 mg) was 2780 ng·h/mL and the Cmax ([3]; single oral dose 400 mg) was 1400 ng/mL. For the same molecule, the Tmax ([3]; single oral dose 400 mg) was 19.8 min, the AUC ([3]; single oral dose 600 mg) was 5010 ng·h/mL and the AUC(0-t) ([3]; single oral dose 600 mg) was 4920 ng·h/mL. It also gave a Cmax ([3]; single oral dose 600 mg) of 2500 ng/mL, a Tmax ([3]; single oral dose 600 mg) of 40.2 min and an AUC ([3]; single oral dose 800 mg) of 6310 ng·h/mL. The AUC(0-t) ([3]; single oral dose 800 mg) was 6290 ng·h/mL, the Cmax ([3]; single oral dose 800 mg) was 2960 ng/mL and the Tmax ([3]; single oral dose 800 mg) was 40.2 min. The “amount of intact drug excreted via urine during 48 h” value ([3]; second of four values: 400 mg) was 183.75 ± 142.14 mg, the Cl_F_pred ([3]; single oral dose 200 mg) was 154(39.65) L/hr and the HL_Lambda_z ([3]; single oral dose 200 mg) was 6.9(2.06) hr. For the same molecule, the Lambda_z ([3]; single oral dose 200 mg) was 0.1093(0.03) l/hr, the Vz_F_pred ([3]; single oral dose 200 mg) was 1540(644.41) L and the Cl_F_pred ([3]; single oral dose 400 mg) was 154(44.83) L/hr. The HL_Lambda_z ([3]; single oral dose 400 mg) was 5.26(1.58) hr, the Lambda_z ([3]; single oral dose 400 mg) was 0.1434(0.04) l/hr and the Vz_F_pred ([3]; single oral dose 400 mg) was 1180(530.69) L. For the same molecule, the Cl_F_pred ([3]; single oral dose 600 mg) was 129(35.67) L/hr, the HL_Lambda_z ([3]; single oral dose 600 mg) was 6.46(2.07) hr and the Lambda_z ([3]; single oral dose 600 mg) was 0.1141(0.02) l/hr. For the same molecule, the Vz_F_pred ([3]; single oral dose 600 mg) was 1180(407.19) L, the Cl_F_pred ([3]; single oral dose 800 mg) was 134(35.93) L/hr and the HL_Lambda_z ([3]; single oral dose 800 mg) was 5.54(0.86) hr. The Lambda_z ([3]; single oral dose 800 mg) was 0.1278(0.02) l/hr, the Vz_F_pred ([3]; single oral dose 800 mg) was 1080(336.89) L and the safety and tolerability ([3]; single oral doses of 200, 400, 600, 800 mg, Chinese healthy subjects) was “safe and well tolerated with no adverse events nor SAEs reported”. The “amount of intact drug excreted via urine during 48 h” value ([3]; third of four values: 600 mg) was 218.93 ± 182.73 mg, the Amount_Recovered ([3]; single oral dose 200 mg) was 1.27(1.34) L*mg/L and the “Percent_Recovered (urinary percentage of Hydronidone)” value (shortened to “Percent_Recovered”) ([3]; single oral dose 200 mg) was 0.634±0.57%. The “Percent_Recovered” value ([3]; single oral dose 200 mg, listed as hydronidone) was 0.634(0.57) %, the Amount_Recovered ([3]; single oral dose 400 mg) was 1.92(0.87) L*mg/L and the “Percent_Recovered” value ([3]; single oral dose 400 mg) was 0.479±0.22%. For the same molecule, the “Percent_Recovered” value ([3]; single oral dose 400 mg, listed as hydronidone) was 0.479(0.22) %, the Amount_Recovered ([3]; single oral dose 600 mg) was 2.86(1.19) L*mg/L and the “Percent_Recovered” value ([3]; single oral dose 600 mg) was 0.476±0.2%. For the same molecule, the “Percent_Recovered” value ([3]; single oral dose 600 mg, listed as hydronidone) was 0.476(0.2) %, the Amount_Recovered ([3]; single oral dose 800 mg) was 3.22(2.03) L*mg/L and the “Percent_Recovered” value ([3]; single oral dose 800 mg) was 0.403±0.25%. For the same molecule, the “Percent_Recovered” value ([3]; single oral dose 800 mg, listed as hydronidone) was 0.403(0.25) %.
